# Earlier results as cited in patent publication US6365180B1, “Oral liquid compositions” (priority 1998, dated 2002).
# Details: enteric coated tablet versus aqueous solution
structure (smiles),measurement,value
O=C(O)Cc1ccccc1Nc1c(Cl)cccc1Cl [sodium diclofenac],oral bioavailability,more orally bioavailable from an enteric coated tablet than from an aqueous solution
